# Patent US7718639B2, “7-hydroxyepiandrosterone having neuroprotective activity” (Hunter-Fleming Limited, priority 2000, dated 2010)
# How the values were obtained:
# [1] = system: CA1 cell layer of organotypic hippocampal slice cultures; experiment: Hypoxic neuronal damage in organotypic hippocampal slice cultures (PI fluorescence in CA1); format: cell-based, Wistar rat; settings: for reduction of hypoxic CA1 damage (in words): present pre-
# Protocol: Organotypic hippocampal slice cultures were prepared using the basic method of Pringle et al (1996, 1997) modified as follows:
# Wistar rat pups (8-11 days old) were decapitated and the hippocampus rapidly dissected into ice-cold Gey's balanced salt solution supplemented with 4.5 mg/ml glucose. Slices were separated and plated onto Millicell CM culture inserts (4 per well) and maintained at 37° C./5% CO2 for 14 days. Maintenance medium consisted of 25% heat-inactivated horse serum, 25% Hank's balanced salt solution (HBSS) and 50% minimum essential medium with added Earle's salts (MEM) supplemented with 1 mM glutamine and 4.5 mg/ml glucose. Medium was changed every 3-4 days.
# Experimental hypoxia was performed as described previously (Pringle et al., 1996; 1997). Briefly, cultures were transferred to serum free medium (SFM—75% MEM, 25% HBSS supplemented with 1 mM glutamine and 4.5 mg/ml glucose) containing 5 μg/ml of the fluorescent exclusion dye propidium iodide (PI). Cultures were allowed to equilibrate in SFM for 60 minutes prior to imaging. PI fluorescence was detected using a Leica inverted microscope fitted with a rhodamine filter set. Any cultures in which PI fluorescence was detected at this stage were excluded from further study. Hypoxia was induced by transferring cultures to SFM (+PI) which had been saturated with 95%N2/5%CO2. Culture plates (without lids) were then sealed into an airtight chamber in which the atmosphere was saturated with 95%N2/5%CO2 by continuously blowing through gas at 10 L/min for ten minutes before being sealed and placed in the incubator for 170 mins (total time of hypoxia was therefore 180 mins). At the end of the hypoxic period cultures were returned to normoxic SFM containing PI and placed back in the incubator for 24 hours.
# Neuronal damage was assessed as described previously (Pringle et al., 1996; 1997) using either NIH Image 1.60 running on an Apple IIsi computer or OpenLab 2.1 (Improvision) running on a Macintosh G4/400. Images were captured using a monochrome camera and saved onto optical disk for offline analysis. Light transmission images were captured prior to the addition of drugs, and PI fluorescence images recorded at the end of the 24-hour post-hypoxia recovery period. The area of the CA1 cell layer was determined from the transmission image. The area of PI fluorescence in CA1 was measured using the density slice function within NIH image or Openlab, and neuronal damage expressed as the percentage of the CA1 in which PI fluorescence was detected above background.
# Steroid compounds were prepared by making an initial 1 mg/ml solution in ethanol and further diluting down in SFM. Compounds were added to the cultures for 45 minutes prior to hypoxia, during the hypoxic episode and during the post-hypoxic recovery period. Control experiments consisted of cultures treated with vehicle alone.
# [2] = system: hippocampal CA1 pyramidal cells; experiment: Global cerebral ischemia in rats (4 vessel occlusion), surviving CA1 neurons by Nissl staining; format: in vivo, male Wistar rats
# Protocol: Cerebral ischemia was induced by four-vessel-occlusion (4VO) in male Wistar rats (250-280 g). Both vertebral arteries were occluded by electrocauterization in pentobarbital anesthesia (60 mg/kg i.p.). The animals were allowed to recover for 24 hours with free access to water but not food. The next day the carotid arteries were exposed under 2% halothane in 30% oxygen/70% nitrous oxide anesthesia and were occluded for 10 minutes using microvascular claps. Subsequently, both clamps were removed and both arteries were inspected for immediate reperfusion. During the operation and the following 3 hours normothermia of the animals (37.5Γ0.5° C.) was maintained by using a thermostatically controlled heating blanket connected to a rectal thermometer. For control, in sham-operated animals both vertebral arteries were cauterized in pentobarbital anesthesia and both common carotid arteries were exposed but not clamped under 2% halothane in 30% oxygen/70% nitrous oxide anesthesia the following day. The wound was treated with lidocaine gel and then sutured. The animals were kept under a heating lamp at 30° C. environmental temperature until they regained consciousness.
# Seven groups of animals were investigated: • 1. (n=8) steroid compound, 7β-OH EPIA (0.1 mg/kg, i.v. via tail vein, three injections: 15 minutes prior to the induction of ischemia, during ischemia and 5 minutes after reperfusion); • 2. (n=8) steroid compound, 7β-OH EPIA (0.3 mg/kg, i. v. three injections as described in 1.); • 3. (n=8) steroid compound, 7β-OH EPIA (1 mg/kg, i. v., three injections as described in 1.); • 4. (n=8) NBQX (disodium salt, because more water soluble) as reference substance and positive control (TOCRIS, Germany, 30 mg/kg, i. p., three injections as described in 1.); • 5. (n=8) received vehicle (0.9% NaCl, containing 100 μl Ethanol) three injections as described in 1.); • 6. (n=8) ischemia alone; • 7. (n=8) sham operated controls.
# The substances were dissolved in 100 μl Ethanol and finally diluted with 0.9% NaCl.
# After a survival time of 7 days after ischemia, all animals were perfusion fixed transcardially with 4% paraformaldehyde. The brains were then removed carefully and postfixed in the same fixative for 2 hours. After cryoprotection in 30% sucrose, the brains were rapidly frozen in isopentane and stored at −80° C. Twenty-micrometer cryostat sections comprising the hippocampal formation were Nissl stained with toluidine blue or NeuroTrace fluorescence.
# The severity of neuronal damage in the hippocampal CA1 region after ischemia was evaluated by the number of surviving neurons using Nissl staining. The mean number of morphologically intact neurons per 400 μm length was calculated in CA1 region for each group. […] The data were statistically analyzed by paired Student's t-test. […]
# [3] = Experiment 1, 100 nM, compound present pre-, during and post-hypoxia, control hypoxia 25.5 ± 6.4
# [4] = Experiment 1, 100 nM, during and post-hypoxia
# [5] = Experiment 2, 1 nM, control hypoxia 31.9 ± 4.7
# [6] = Experiment 2, 10 nM, control hypoxia 31.9 ± 4.7
# [7] = Experiment 2, 100 nM, control hypoxia 31.9 ± 4.7
Compound,"% Damage in CA1 [1, 3]","reduction of hypoxic CA1 damage (in words) [1, 4]","neuroprotective effect against hypoxic damage (in words) ([1]; Experiment 2, 1 nM)","% Damage in CA1 [1, 5]","neuroprotective effect against hypoxic damage (in words) ([1]; Experiment 2, 10 nM)","% Damage in CA1 [1, 6]","neuroprotective effect against hypoxic damage (in words) ([1]; Experiment 2, 100 nM)","% Damage in CA1 [1, 7]","neuroprotective effect on CA1 pyramidal cells compared to the sham operated group ([2]; 0.1 mg/kg i.v., three injections, 10 min global ischemia, 7 days survival, p=0.01)","neuroprotective effect on CA1 pyramidal cells compared to the sham operated group ([2]; 0.3 mg/kg i.v., three injections, 10 min global ischemia, 7 days survival, p=0.0008)","neuroprotective effect on CA1 pyramidal cells (in words) ([2]; 1.0 mg/kg i.v., three injections, 10 min global ischemia, 7 days survival)","behavioral abnormalities of the animals ([2]; injected i.v. prior, during and after ischemia, all experiments)"
"CC12CCC3C(C1CCC2=O)[C@H](O)C[C@H]1C[C@@H](O)CCC31C (stereo partly drawn) [7αOH-EPIA, 7α-Hydroxy-EPIA]",4.0 ± 2.9 %,significantly reduced,no effect,28.8 ± 5.8%,not-statistically significant reduction,21.9 ± 8.1%,significantly protective,11.8 ± 2.8 %,,,,
"CC12CCC3C(C1CCC2=O)[C@@H](O)C[C@H]1C[C@@H](O)CCC31C (stereo partly drawn) [7βOH-EPIA, 7β-hydroxyepiandrosterone]",9.0 ± 4.7 %,significantly reduced,activity was lost,20.6 ± 7.2%,significantly neuroprotective,11.9 ± 4.7 %,significantly neuroprotective,14.3 ± 5.0 %,74.8%,83.9%,"only a tendency to neuroprotection, but the effect was not significant",never observed any behavioral abnormalities
